ChEMBL document CHEMBL2169878 (J Med Chem, 2012)
The source made the active and inactive calls. The rule behind the calls is not given here.

Assays:
Plasmodium berghei [1] = assay: Antimalarial activity against Plasmodium berghei ANKA expressing GFP infected in mouse assessed as reduction in parasitemia at 30 mg/kg, po administered QD for 3 days measured 24 hrs post-final dosing by flow cytometric analysis; type: functional; parameters: scale not given: the % may be the effect or the level left
Plasmodium falciparum [2] = assay: Antiplasmodial activity against chloroquine-resistant Plasmodium falciparum K1 infected in human erythrocytes assessed as inhibition of [3H]hypoxanthine incorporation incubated for 48 hrs prior to [3H]hypoxanthine addition measured after 48 hrs by liquid scintillation counting; type: functional, organism-based
Plasmodium falciparum [3] = assay: Antiplasmodial activity against chloroquine-sensitive Plasmodium falciparum D10 infected in human RBC after 72 hrs by parasite lactate dehydrogenase assay; type: functional, organism-based; settings: D10, 72 h
Salmonella typhimurium [4] = assay: Mutagenicity against Salmonella typhimurium TA100 assessed as revertants at 3 uM incubated for 90 mins followed by drug washout measured after 2 days relative to positive control; type: toxicity, organism-based; settings: salmonella enterica subsp. enterica serovar typhimurium, 1.5 h
[5] = Cytotoxicity against mouse NIH3T3 cells after 24 hrs by neutral red dye uptake assay; type: cell-based; settings: read-out: TC50
Salmonella typhimurium [6] = assay: Mutagenicity against Salmonella typhimurium TA100 assessed as revertants at 8 uM incubated for 90 mins followed by drug washout measured after 2 days relative to positive control; type: toxicity, organism-based; settings: salmonella enterica subsp. enterica serovar typhimurium
[7] = target: T1, Chloroquine resistance transporter (Plasmodium falciparum) (UniProt Q9N623); assay: Inhibition of chloroquine-sensitive Plasmodium falciparum D10 CRT expressed in Xenopus laevis oocyte assessed as inhibition of [3H]chloroquine uptake at 100 uM measured from 1 to 2 hrs
T1 sequence (whole entry): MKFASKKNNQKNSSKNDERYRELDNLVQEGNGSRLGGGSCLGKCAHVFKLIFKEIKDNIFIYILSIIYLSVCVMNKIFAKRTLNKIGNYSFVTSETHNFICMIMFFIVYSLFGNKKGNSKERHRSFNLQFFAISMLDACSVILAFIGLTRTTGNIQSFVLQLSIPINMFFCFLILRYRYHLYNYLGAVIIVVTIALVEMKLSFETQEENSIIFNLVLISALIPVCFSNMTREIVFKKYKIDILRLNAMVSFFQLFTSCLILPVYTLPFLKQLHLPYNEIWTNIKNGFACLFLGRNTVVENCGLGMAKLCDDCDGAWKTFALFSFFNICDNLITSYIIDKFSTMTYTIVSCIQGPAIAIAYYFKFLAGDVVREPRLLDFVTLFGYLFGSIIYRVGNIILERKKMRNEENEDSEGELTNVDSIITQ

Salmonella typhimurium [8] = assay: Mutagenicity against Salmonella typhimurium TA98 assessed as revertants at 17 uM incubated for 90 mins followed by drug washout measured after 2 days relative to positive control; type: toxicity, organism-based; settings: salmonella enterica subsp. enterica serovar typhimurium
Salmonella typhimurium [9] = assay: Mutagenicity against Salmonella typhimurium TA98 assessed as revertants at 1 uM incubated for 90 mins followed by drug washout measured after 2 days relative to positive control; type: toxicity, organism-based; settings: salmonella enterica subsp. enterica serovar typhimurium
Salmonella typhimurium [10] = assay: Mutagenicity against Salmonella typhimurium TA100 assessed as revertants at 17 uM incubated for 90 mins followed by drug washout measured after 2 days relative to positive control; type: toxicity, organism-based; settings: salmonella enterica subsp. enterica serovar typhimurium
Plasmodium falciparum [11] = assay: Antiplasmodial activity against chloroquine-sensitive Plasmodium falciparum NF54 infected in human erythrocytes assessed as inhibition of [3H]hypoxanthine incorporation incubated for 48 hrs prior to [3H]hypoxanthine addition measured after 48 hrs by liquid scintillation counting; type: functional, organism-based
Plasmodium berghei [12] = assay: Antimalarial activity against Plasmodium berghei ANKA expressing GFP infected in mouse assessed as cure from infection at 30 mg/kg, po administered QD for 3 days measured on day 30; type: functional, organism-based; parameters: dose 30 mg/kg
[13] = target: Chloroquine resistance transporter (Plasmodium falciparum, UniProt Q9N623); assay: Inhibition of chloroquine-resistant Plasmodium falciparum Dd2 CRT expressed in Xenopus laevis oocyte assessed as inhibition of [3H]chloroquine uptake measured from 1 to 2 hrs
[14] = target: T1, Chloroquine resistance transporter (Plasmodium falciparum); assay: Inhibition of chloroquine-resistant Plasmodium falciparum Dd2 CRT expressed in Xenopus laevis oocyte assessed as inhibition of [3H]chloroquine uptake at 100 uM measured from 1 to 2 hrs
Plasmodium berghei [15] = assay: Antimalarial activity against Plasmodium berghei ANKA expressing GFP infected in mouse assessed as cure from infection at 100 mg/kg, po administered 24 hrs post-infection measured on day 30; type: functional, organism-based; parameters: dose 100 mg/kg
Salmonella typhimurium [16] = assay: Mutagenicity against Salmonella typhimurium TA98 assessed as revertants at 2 uM incubated for 90 mins followed by drug washout measured after 2 days relative to positive control; type: toxicity, organism-based; settings: salmonella enterica subsp. enterica serovar typhimurium, 1.5 h
Plasmodium berghei [17] = assay: Antimalarial activity against Plasmodium berghei ANKA expressing GFP infected in mouse assessed as reduction in parasitemia at 50 mg/kg, po administered QD for 3 days measured 24 hrs post-final dosing by flow cytometric analysis; type: functional; parameters: scale not given: the % may be the effect or the level left
Salmonella typhimurium [18] = assay: Mutagenicity against Salmonella typhimurium TA98 assessed as revertants at 4 uM incubated for 90 mins followed by drug washout measured after 2 days relative to positive control; type: toxicity, organism-based; settings: salmonella enterica subsp. enterica serovar typhimurium
Salmonella typhimurium [19] = assay: Mutagenicity against Salmonella typhimurium TA100 assessed as revertants at 1.5 uM incubated for 90 mins followed by drug washout measured after 2 days relative to positive control; type: toxicity, organism-based; settings: salmonella enterica subsp. enterica serovar typhimurium, 1.5 h
Plasmodium berghei [20] = assay: Antimalarial activity against Plasmodium berghei ANKA expressing GFP infected in mouse assessed as cure from infection at 50 mg/kg, po administered QD for 3 days measured on day 30; type: functional, organism-based; parameters: dose 50 mg/kg
Salmonella typhimurium [21] = assay: Mutagenicity against Salmonella typhimurium TA100 assessed as revertants at 34 uM incubated for 90 mins followed by drug washout measured after 2 days relative to positive control; type: toxicity, organism-based; settings: salmonella enterica subsp. enterica serovar typhimurium
Plasmodium falciparum [22] = assay: Resistance ratio of IC50 for chloroquine-resistant Plasmodium falciparum K1 to IC50 for chloroquine-sensitive Plasmodium falciparum NF54; type: functional
Plasmodium falciparum [23] = assay: Resistance ratio of IC50 for chloroquine-resistant Plasmodium falciparum W2 to IC50 for chloroquine-sensitive Plasmodium falciparum D10; type: functional
Plasmodium berghei [24] = assay: Antimalarial activity against Plasmodium berghei ANKA expressing GFP infected in mouse assessed as mean survival days at 30 mg/kg, po administered QD for 3 days (reference value: 6 to 7 days); type: functional
Plasmodium berghei [25] = assay: Antimalarial activity against Plasmodium berghei ANKA expressing GFP infected in mouse assessed as reduction in parasitemia at 30 mg/kg, po administered at 6,24,48 and 72 hrs post-infection measured 24 hrs post-final dosing by flow cytometric analysis; type: functional; parameters: scale not given: the % may be the effect or the level left
Plasmodium berghei [26] = assay: Antimalarial activity against Plasmodium berghei ANKA expressing GFP infected in mouse assessed as reduction in parasitemia at 30 mg/kg, po administered 24 hrs post-infection measured 48 hrs post-dosing by flow cytometric analysis; type: functional; parameters: scale not given: the % may be the effect or the level left
Plasmodium berghei [27] = assay: Antimalarial activity against Plasmodium berghei ANKA expressing GFP infected in mouse assessed as reduction in parasitemia at 100 mg/kg, po administered 24 hrs post-infection measured 48 hrs post-dosing by flow cytometric analysis; type: functional; parameters: scale not given: the % may be the effect or the level left
Plasmodium berghei [28] = assay: Antimalarial activity against Plasmodium berghei ANKA expressing GFP infected in mouse assessed as mean survival days at 30 mg/kg, po administered 24 hrs post-infection (reference value: 6 to 7 days); type: functional
[29] = Cytotoxicity against human HepG2 cells after 24 hrs by neutral red dye uptake assay; type: cell-based; settings: read-out: TC50
Salmonella typhimurium [30] = assay: Mutagenicity against Salmonella typhimurium TA98 assessed as revertants at 8 uM incubated for 90 mins followed by drug washout measured after 2 days relative to positive control; type: toxicity, organism-based; settings: salmonella enterica subsp. enterica serovar typhimurium, 1.5 h
Plasmodium berghei [31] = assay: Antimalarial activity against Plasmodium berghei ANKA expressing GFP infected in mouse assessed as mean survival days at 30 mg/kg, po administered at 6,[…],[…] and 72 hrs post-infection (reference value: 6 to 7 days); type: functional
Plasmodium berghei [32] = assay: Antimalarial activity against Plasmodium berghei ANKA expressing GFP infected in mouse assessed as mean survival days at 100 mg/kg, po administered 24 hrs post-infection (reference value: 6 to 7 days); type: functional
Plasmodium berghei [33] = assay: Antimalarial activity against Plasmodium berghei ANKA expressing GFP infected in mouse assessed as cure from infection at 30 mg/kg, po administered at 6,24,48 and 72 hrs post-infection measured on day 30; type: functional, organism-based; parameters: dose 30 mg/kg
Salmonella typhimurium [34] = assay: Mutagenicity against Salmonella typhimurium TA98 assessed as revertants at 34 uM incubated for 90 mins followed by drug washout measured after 2 days relative to positive control; type: toxicity, organism-based; settings: salmonella enterica subsp. enterica serovar typhimurium, 1.5 h
Salmonella typhimurium [35] = assay: Mutagenicity against Salmonella typhimurium TA100 assessed as revertants at 1 uM incubated for 90 mins followed by drug washout measured after 2 days relative to positive control; type: toxicity, organism-based; settings: salmonella enterica subsp. enterica serovar typhimurium, 1.5 h
Plasmodium falciparum [36] = assay: Antiplasmodial activity against chloroquine-resistant Plasmodium falciparum W2 infected in human RBC after 72 hrs by parasite lactate dehydrogenase assay; type: functional, organism-based; settings: W2, 72 h
Plasmodium berghei [37] = assay: Antimalarial activity against Plasmodium berghei ANKA expressing GFP infected in mouse assessed as mean survival days at 50 mg/kg, po administered QD for 3 days (reference value: 6 to 7 days); type: functional
Plasmodium berghei [38] = assay: Antimalarial activity against Plasmodium berghei ANKA expressing GFP infected in mouse assessed as cure from infection at 30 mg/kg, po administered 24 hrs post-infection measured on day 30; type: functional, organism-based; parameters: dose 30 mg/kg

`Clc1cccc(C(Nc2ccnc3cc(Cl)ccc23)c2ccc(CN3CCNCC3)cc2)c1` (racemic) gave an Activity (Plasmodium berghei [1]) of 99.8%, an IC50 (Plasmodium falciparum [2]) of 23 nM and an IC50 (Plasmodium falciparum [3]) of 25 nM. The Activity (Salmonella typhimurium [4]) was 3%, the CC50 at 24 h [5] was 16 µM and the Activity (Salmonella typhimurium [6]) was 5%. For the same molecule, the inhibition [7] was “inactive”, the Activity (Salmonella typhimurium [8]) was 11% and the Activity (Salmonella typhimurium [9]) was 9%. The Activity (Salmonella typhimurium [10]) was 7%, the IC50 (Plasmodium falciparum [11]) was 19 nM and the Activity (Plasmodium berghei [12]) was “Active”. For the same molecule, the IC50 [13] was 10.5 µM, the inhibition [14] was “Active” and the Activity (Plasmodium berghei [15]) was “Active”. For the same molecule, the Activity (Salmonella typhimurium [16]) was 7%, the Activity (Plasmodium berghei [17]) was 99.8% and the Activity (Salmonella typhimurium [18]) was 4%. For the same molecule, the Activity (Salmonella typhimurium [19]) was 5%, the Activity (Plasmodium berghei [20]) was “inactive” and the Activity (Salmonella typhimurium [21]) was 2%. For the same molecule, the “Ratio IC50” value (Plasmodium falciparum [22]) was 1.2, the “Ratio IC50” value (Plasmodium falciparum [23]) was 1.4 and the MSD (Plasmodium berghei [24]) was 30 days. It also gave an Activity (Plasmodium berghei [25]) of 99.9%, an Activity (Plasmodium berghei [26]) of 99.7% and an Activity (Plasmodium berghei [27]) of 99.6%. For the same molecule, the MSD (Plasmodium berghei [28]) was 24 days, the CC50 at 24 h [29] was < 4 µM and the Activity (Salmonella typhimurium [30]) was 16%. For the same molecule, the MSD (Plasmodium berghei [31]) was 30 days, the MSD (Plasmodium berghei [32]) was 29.6 days and the Activity (Plasmodium berghei [33]) was “Active”. For the same molecule, the Activity (Salmonella typhimurium [34]) was 4%, the Activity (Salmonella typhimurium [35]) was 6% and the IC50 (Plasmodium falciparum [36]) was 33 nM. For the same molecule, the MSD (Plasmodium berghei [37]) was 30 days and the Activity (Plasmodium berghei [38]) was “inactive”.
